Measurements reported in PMC7824033, “Flavones, Flavonols, and Glycosylated Derivatives—Impact on Candida albicans Growth and Virulence, Expression of CDR1 and ERG11, Cytotoxicity” (Pharmaceuticals, 2020).
Values after ≈ are worked out from the molar mass of the structure shown. “Also recorded” adds a separate entry of the source. Like-named read-outs stand apart in the source and are kept apart here. Each block holds one compound with its values, some of them ahead of it.

Columns and labels:
C. albicans 527/14 = assay: Microdilution assay, MIC and MFC; format: cell-based; conditions: Candida albicans, C. albicans 527/14, mean ± SD of three replicates
Text: (§1) C. albicans was isolated from oral cavities of patients at ENT Clinic, Clinical Hospital Centre Zvezdara, Belgrade, Serbia after obtaining informed written consent and identified by using CHROMagar plates (Biomerieux, Craponne, France). Strains were maintained on Sabouraud Dextrose Agar (Merck, Darmstadt, Germany) and are deposited at the Mycological Laboratory, Department of Plant Physiology, Institute for Biological Research “Siniša Stanković”, National Institute of Republic of Serbia, University of Belgrade. The collection of samples was approved by the Ethical Committee (Office for Human Research Protection, Zvezdara University Medical Center, Belgrade, Serbia, document issued 26 October 2016).
(§2) Microdilution assay with some modification was used for determination of minimum inhibitory (MIC) and minimum fungicidal concentrations (MFC). Yeast cultures were adjusted to 1.0 × 10^5 CFU/per well with sterile PBS (Phosphate buffered saline, pH 7.4). The 96-well microtiter plates with serially diluted flavonoids (concentration range 0.3–75 µg/mL) in liquid broth were incubated at 37 °C for 24 h. After incubation, MIC and MFC were determined. The lowest concentrations that were not inducing microscopically observed growth were considered as MIC. For microscopic determination of growth, we used inverted microscope Nikon Eclipse TS2 (Amsterdam, Netherland) and examined the fungal growth in the wells of 96-well microtiter plates compared to the control (untreated yeast cells). MFC values were determined as concentrations without visible growth after serial sub-cultivation of 10 µL of samples at 37 °C for 24 h. Ketoconazole and amphotericin B (SigmaAldrich, Darmstadt, Germany) were used as an antifungal control. The tested flavonoids were obtained from Extrasynthese, Rhone, France.

C. albicans 13/15 = assay: Microdilution assay, MIC and MFC; format: cell-based; conditions: Candida albicans, C. albicans 13/15, mean ± SD of three replicates
Text: as §1, §2

C. albicans 10/15 = assay: Microdilution assay, MIC and MFC; format: cell-based; conditions: Candida albicans, C. albicans 10/15, mean ± SD of three replicates
Text: as §1, §2

C. albicans 475/15 [1] = assay: Microdilution assay, MIC and MFC; format: cell-based; conditions: Candida albicans, C. albicans 475/15, mean ± SD of three replicates
Text: as §1, §2

C. albicans 475/15 [2] = test system: C. albicans 475/15; parameters: method as in PMID 28827996; conditions: previously published; cited from earlier work
ERG11 = assay: Expression of ERG11 (qPCR); format: cell-based, Candida albicans; conditions: treatment with MIC
Experimental: (§3) Total RNA was isolated as described by Sanglard et al. with some modifications. C. albicans 475/15 was grown with agitation at 30 °C in YEPD until OD540 = 0.4. C. albicans cells were incubated with MIC of compounds in YEPD at 30 °C with agitation for 30 min. Cells were centrifuged (4600 rpm, 4 °C for 5 min (Rotanata 460 R, Hettich, Tuttlingen, Germany)) and the pellet was resuspended in 300 µL of RNA buffer (0.1 M Tris-HCl pH 7.5, 0.1M LiCl, 10mM EDTA, 0.5% SDS). The pellet was homogenized with 200 µL of DEPC treated glass beads and 300 µL of Phenol:Chloroform:Isoamyl Alcohol (Sigma-Aldrich, Darmstadt, Germany) in Precellys Evolution tissue homogenizer (Bertion instruments, Montigny-le-Bretonneux, France) at 4500 rpm for 5 s. After centrifugation (14,000 rpm, 4 °C, 1 min (Universal 32 R, Hettich, Tuttlingen, Germany)) 200 µL of supernatant was vortexed with 250 µL of Phenol:Chloroform:Isoamyl Alcohol for 10 s. Samples were centrifuged (14,000 rpm, 4 °C, 1 min) and 200 µL of supernatant was transferred to new tubes, 400 µL of ice-cold 99% ethanol was added to each tube, and they were kept on dry ice for 10 min. Samples were centrifuged (14,000 rpm, 4 °C, 2 min), pellet was washed with ethanol (70%), left to dry at room temperature, after which it was dissolved in 50 µL of DEPC treated water. Nanodrop (ND-1000, Witec AG, Sursee, Switzerland) was used for determination of concentration and purity of samples. RNA was stored at −80°C.
(§4) Amount of 10 µg RNA was incubated with 5 µL of DNAse buffer and 1 µL of DNAse at 37 °C for 30 min (DNA-free™ DNA Removal Kit, Ambion, Bleiswijk, Netherlands). After addition of DNAse inactivation reagent tubes were kept at room temperature with occasional vortexing for 5 min. Samples were centrifuged (14,000 rpm, 4°C, 2 min) and the concentration and quality of supernatant were analyzed on Nanodrop (ND-1000, Witec AG, Sursee, Switzerland).
(§5) Synthesis of cDNA was done with a Transcriptor High Fidelity cDNA synthesis kit (Roche). RNA (1 µg) was incubated with 60 µM random hexamer primers, in 11.4 µL of total sample volume, at 65 °C for 10 min. The mixture of Transcriptase reaction buffer 5×, Deoxynucleotide mix, DTT, Protector RNAse inhibitor, and Transcriptor High Fidelity Reverse Transcriptase was added to each tube according to manufacturer instructions. Synthesis of cDNA was completed by incubating the mixture at 50 °C for 30 min and 85 °C for 5 min (Peqstar thermocycler, Peqlab, Erlangen, Germany).
(§6) Wells of MicroAmp Fast 96-Well Reaction plate ((0.1 mL), Applied biosystems, Waltham, MA, USA) were incubated with 10 µL of mixture (cDNA, 2× MasterMix, primers, probe (Table 3), and water). Analysis was performed in StepOnePlus Real Time PCR system with relative standard curve method. Expression levels of CDR1 and ERG11 were normalized to expression of ACT1.

in vitro = conditions: pig
Experimental: Preparation of PLP2 cell line was performed with freshly harvested porcine liver supplied from a local slaughter house. Tissues from the liver were washed in Hank’s balanced salt solution comprising 100 U/mL penicillin and 100 μg/mL streptomycin and split into 1 × 1 mm^3 explants. Some of the prepared explants were set in 25 cm^2 tissue flasks in Dulbecco’s modified Eagle’s medium (DMEM) with 10% fetal bovine serum (FBS), 2 mM nonessential amino acids, 100 U/mL penicillin, and […] streptomycin, and incubation was conducted at 37 °C with 5% CO2 in a humidified atmosphere. The fresh medium was added every 2 days. Cultivation of the cells was further conducted with direct observation by the phase contrast microscope every 2–3 days. Before confluence was achieved, cells were subcultured and seeded in 96-well plates at a density of 1.0 × 10^4 cells per well and cultivated in DMEM supplemented with 10% FBS, 100 U/mL penicillin, and 100 μg/mL streptomycin. Previously described Sulforhodamine B assay was used for the determination of cytotoxicity. The obtained results were defined as GI50 values corresponding to the compound concentration that inhibits 50% of the net cell growth. Ellipticine was used as a positive control.

S. aureus efflux = test system: S. aureus efflux; parameters: method as in PMID 25961825; conditions: bacterial efflux pumps; cited from earlier work
[3] = test system: C. albicans 475/15 hyphal growth; assay: Anti-hyphal forming activity; format: cell-based, Candida albicans; conditions: MIC, 4 h, YPD + 10% FBS
Experimental: C. albicans 475/15 cells were incubated with MIC of tested compounds in YPD + 10% FBS, at 37 °C, for 4 h. Cells were examined under microscope (Nikon Eclipse TS2, Amsterdam, Netherland) and number of cells, growing in the yeast or hyphal and germ tube formations, was determined. Assay was performed in triplicate and percentage of hyphae was determined.

[4] = test system: C. albicans 475/15 biofilm formation; assay: Inhibition of biofilm formation (crystal violet); format: cell-based, Candida albicans; conditions: concentration not given
Experimental: Potential of selected compounds to interfere with C. albicans 475/15 biofilm formation was investigated as previously described. Briefly, C. albicans 475/15 was incubated with serial dilution of the compounds (MIC and subMICs) in YPD medium, in 96-well microtiter plates with adhesive bottom (Sarstedt, Nümbrecht, Germany), at 37 °C for 24 h. After incubation, wells were washed twice with sterile PBS and methanol was added into each well. After fixation, methanol was discarded, and the plate was air dried. Formed biofilms were stained with 0.1% crystal violet (Bio-Merieux, Craponne, France) for 30 min. The plate was gently washed under the tap of water and air dried. The stain bound to the remaining biofilms was dissolved with ethanol (96%, Zorka, Šabac, Serbia). Absorbance was read on a Multiskan™ FC Microplate Photometer, Thermo Scientific™. The percentage of inhibition of biofilm formation was calculated by the formula:[(A620control − A620sample)/A620control] × 100

[5] = test system: HUVE (human umbilical vein endothelial) cells; conditions: read-out: LC50; cited from earlier work
C. albicans biofilm = conditions: cited from earlier work
CDR1 = assay: Expression of CDR1 (qPCR); format: cell-based, Candida albicans; conditions: treatment with MIC
Experimental: as §3, §4, §5, §6

MIC (C. albicans 527/14; read-out: MIC): 0.63 ± 0.001 µg/mL (≈ 0.682 µM) | MIC (C. albicans 13/15; read-out: MIC): 0.63 ± 0.001 µg/mL (≈ 0.682 µM) | MIC (C. albicans 10/15; read-out: MIC): 0.63 ± 0.001 µg/mL (≈ 0.682 µM) | MIC (C. albicans 475/15 [1]; read-out: MIC): 0.63 ± 0.001 µg/mL (≈ 0.682 µM)
SMILES: C[C@@H]1[C@H](O)[C@@H](C)/C=C/C=C/C=C/C=C/C=C/C=C/C=C/[C@H](O[C@@H]2O[C@H](C)[C@@H](O)[C@H](N)[C@@H]2O)C[C@@H]2O[C@](O)(C[C@@H](O)C[C@@H](O)[C@H](O)CC[C@@H](O)C[C@@H](O)CC(=O)O[C@H]1C)C[C@H](O)[C@H]2C(=O)O [Amphotericin B, amphotericin B, reference compound]
MFC (C. albicans 527/14; read-out: MFC): 1.25 ± 0.002 µg/mL (≈ 1.35 µM) | MFC (C. albicans 13/15; read-out: MFC): 1.25 ± 0.002 µg/mL (≈ 1.35 µM) | MFC (C. albicans 10/15; read-out: MFC): 1.25 ± 0.002 µg/mL (≈ 1.35 µM) | MFC (C. albicans 475/15 [1]; read-out: MFC): 1.25 ± 0.002 µg/mL (≈ 1.35 µM)

SMILES: O=c1cc(-c2ccc(O)cc2)oc2cc(O)cc(O)c12 [Apigenin, apigenin]
MIC (C. albicans 475/15 [2]): 100 µg/mL (≈ 370 µM) | impact on ERG11 expression (words) (ERG11): negative impact | impact on ERG11 expression (words) (ERG11; listed as apigenin): lower expression levels; also recorded: lowering ERG11 expression | GI50 (in vitro): > 400 µg/mL | concentration that inhibited bacterial efflux pumps (S. aureus efflux): 38 µg/mL | reduction of hyphal growth (words) [3]: lowest number of cells growing in the hyphal form | reduction of biofilm formation [4]: more than 50% | CC50 [5]: 110 µM | antibiofilm effect (C. albicans biofilm; 125 µg/mL, oral and reference isolates SC5314 and 3153A): did not show any antibiofilm effect | concentration necessary for biofilm reduction (C. albicans biofilm; C. albicans ATCC 90028): 5 µg/mL | CDR1 expression level, log2FC (CDR1; 30 min, normalized to ACT1): < −1 log2FC | impact on CDR1 expression (CDR1; listed as apigenin): downregulated; also recorded: inhibitory impact; also recorded: lowering CDR1 expression

SMILES: Cc1c2ccncc2c(C)c2c1[nH]c1ccccc12 [Ellipticin, Ellipticine, reference compound]
GI50 (in vitro): 3.22 ± 0.2 µg/mL (≈ 13.1 µM)
